Assay results as given in PMC4667193 (Scientific Reports, 2015).

Tests used:
[1] = target: muscarinic cholinergic receptors; conditions: [^3H]QNB, rat hippocampus; cited from earlier work
[2] = test system: rat primary hippocampal cell culture; assay: MTT viability assay, AEME-induced neurotoxicity; type: cell-based; conditions: 10^−3 M AEME, 24 hours, % of control
Protocol: Neuronal viability was evaluated in the hippocampal cell culture using the 3-(4,5-dimethylthiazol-2-yl)-2,5-diphenyltetrazolium bromide (MTT; Sigma) reduction assay, with some modification. Briefly, after 24 hours of incubation with 10^−3 M AEME in the absence and in the presence of 10 nM pirenzepine hydrochloride (M1 selective antagonist; Sigma), 10 nM p-F-HHSiD (M3 selective antagonist; Sigma) and the specific inhibitor of different isoforms of PLC U73122 (10 nM)[55] (Sigma), all the medium was removed, and 100 μL of MTT solution, containing 5 mg/mL MTT in PBS and neurobasal medium without phenol red (1:9, v/v) were added. After 3 hours of incubation with MTT at 37 °C in a humidified atmosphere of 5% CO2, the MTT solution was removed and 200 μL of dimethyl sulfoxide was added to each well. After 30 minutes of shaking, the absorbance was measured at 570 nm in a multiwell plate reader (BioTek Synergy H1 Hybrid Reader). Potassium chloride (250 mM) was used as a positive control of neuronal death. Muscarinic antagonists, as well as the iPLC, were added 30 minutes prior to incubation with AEME. The antagonist concentration used was near the pKi[25][56]. A control containing 0.002% DMSO was used, since the iPLC stock solution was previously dissolved in this solvent. The assay was performed in quadruplicate, and the results were expressed as a percentage of the control value.

[3] = test system: rat primary hippocampal cell culture; assay: DNA fragmentation (propidium iodide, flow cytometry); type: cell-based; conditions: for cells with fragmented DNA: 24 hours, control 28.6%
Protocol: DNA fragmentation was assessed using propidium iodide following the method described by Lima et al.[47]. Hippocampal cells were incubated with 10^−4 or 10^−3 M AEME for 12 and 24 hours. Briefly, exposed cells were removed from the culture plate and centrifuged (500 g for 5 minutes) and lysed with a fragmentation buffer ([…] propidium iodide, 0.1% sodium citrate, and 0.1% Triton-X) for 2 hours at room temperature in the dark. DNA fragmentation was analyzed in a flow cytometry (FACSCalibur, Becton Dickinson, CA) using the FL2-A channel (λexcitation = 585 nm and λemission = 642 nm) and […] cells were evaluated per experiment.

Rat M1 mAChR = target: T1, Rat M1 mAChR (Rattus norvegicus, UniProt P08482); assay: [^3H]NMS radioligand competition binding, CHO cell membranes; conditions: rat M1, 0.1 nM [^3H]NMS
T1 construct: host or cells: CHO (CHO-K1) cells
T1 sequence (P08482 1-460): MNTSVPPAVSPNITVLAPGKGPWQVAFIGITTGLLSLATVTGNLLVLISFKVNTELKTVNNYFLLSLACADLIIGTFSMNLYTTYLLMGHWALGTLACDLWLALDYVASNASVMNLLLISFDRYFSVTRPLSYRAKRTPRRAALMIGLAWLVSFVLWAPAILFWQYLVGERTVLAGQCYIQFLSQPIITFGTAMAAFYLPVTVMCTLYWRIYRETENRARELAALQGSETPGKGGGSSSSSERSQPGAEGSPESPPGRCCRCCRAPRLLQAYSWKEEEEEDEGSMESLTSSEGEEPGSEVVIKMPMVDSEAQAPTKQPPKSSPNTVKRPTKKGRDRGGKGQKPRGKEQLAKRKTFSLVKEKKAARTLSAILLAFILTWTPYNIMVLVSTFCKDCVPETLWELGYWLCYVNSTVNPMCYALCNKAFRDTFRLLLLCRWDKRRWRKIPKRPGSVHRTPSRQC
Protocol: (§1) Membranes were prepared from CHO cells stably expressing individual rat mAChRs (rM1 to rM5). Briefly, media was removed, cells were washed with PBS and harvested with PBS into a centrifuge bottle. Cells were spun at 2,000 g for 5 minutes at 4 °C. After harvesting, the supernatant was gently discarded and cold membrane preparation buffer [Hanks’ balanced salt solution (HBSS; Invitrogen), 4.17 mM sodium bicarbonate, 20 mM HEPES and 0.5 mM EDTA] was added (10 mL/dish). Cells were then homogenized for 5–10 seconds with a rotary homogenizer (Polytron®) and centrifuged at 20,000g for 20 minutes at 4 °C. The homogenization/centrifugation cycle was repeated twice. After the last centrifugation, the supernatant was gently discarded and the pellet was resuspended in cold membrane preparation buffer (up to 2 mL). All binding reactions were performed in a total volume of 1 mL containing 25 μg of membrane protein. […] The equilibrium binding was terminated by rapid filtration using a 96-well harvester (Brandel®). Filters were washed three times with ice-cold harvesting buffer and were dried overnight. Radioactivity was counted using a TopCount NXT (PerkinElmer®) and counts were normalized to the maximal specific binding in the presence of vehicle. Saturation and competition binding data were analyzed using a weighted nonlinear least-squares interactive curve-fitting program GraphPad Prism (GraphPad Prism Software version 5.0). A mathematical model for one or two binding sites was applied. The equilibrium dissociation constant (KD) and the binding capacity (Bmax) were determined. The inhibition constant (Ki) was determined from competition curves using the Cheng and Prusoff equation[52].

Rat M4 mAChR = target: T2, Rat M4 mAChR (Rattus norvegicus, UniProt P08485); assay: as above; conditions: rat M4, 0.1 nM [^3H]NMS
T2 construct: host or cells: CHO (CHO-K1) cells
T2 sequence (P08485 1-478): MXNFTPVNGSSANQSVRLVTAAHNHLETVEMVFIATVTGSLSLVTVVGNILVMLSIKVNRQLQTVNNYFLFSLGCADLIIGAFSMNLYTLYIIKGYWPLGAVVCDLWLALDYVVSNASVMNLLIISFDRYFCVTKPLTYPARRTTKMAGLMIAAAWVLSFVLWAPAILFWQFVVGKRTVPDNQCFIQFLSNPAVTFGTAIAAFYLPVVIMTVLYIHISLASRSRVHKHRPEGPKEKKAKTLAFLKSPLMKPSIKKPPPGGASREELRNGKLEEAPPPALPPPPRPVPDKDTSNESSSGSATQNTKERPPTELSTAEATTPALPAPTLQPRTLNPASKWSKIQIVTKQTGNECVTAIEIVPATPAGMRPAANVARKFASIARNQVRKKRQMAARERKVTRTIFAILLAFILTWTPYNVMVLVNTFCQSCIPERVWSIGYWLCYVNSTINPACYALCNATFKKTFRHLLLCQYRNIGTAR
Protocol: as §1

COC(=O)C1=CC[C@@H]2CC[C@H]1N2C [AEME, anhydroecgonine methyl ester]
pKi [1]: 4.15 ± 0.15
viable cells [2]: 67.2%
cells with fragmented DNA ([3]; 10^−3 M): 44.1%
DNA fragmentation ([3]; 10^−4 or 10^−3 M, 12 hours): same pattern of DNA fragmentation as the control group
cells with fragmented DNA ([3]; lower AEME concentration (10^−4 M)): 32.1%
Ki (Rat M1 mAChR): 25.7 µM
Ki (Rat M4 mAChR): 24.5 µM
